The values below come from PubChem BioAssay AID1259407 (Chemical Carcinogenesis Research Information System (CCRIS), 2018).

Activity calls are given as the source filed them. How the calls were made is not given here.

The series has as its system CCRIS mutagenicity, Ames/micronucleus/aberration tests. Nature of the series: CCRIS mutagenicity studies.
The mark [1] stands for this setting: Test System: AMES SALMONELLA TYPHIMURIUM, Strain/Indicator: TA97, Metabolic Activation: NONE, Method: PREINCUBATION
Where [2] appears, read: Test System: AMES SALMONELLA TYPHIMURIUM, Strain/Indicator: TA98, Metabolic Activation: NONE, Method: PREINCUBATION
[3] abbreviates: Test System: AMES SALMONELLA TYPHIMURIUM, Strain/Indicator: TA100, Metabolic Activation: NONE, Method: PREINCUBATION
The mark [4] stands for this setting: Test System: AMES SALMONELLA TYPHIMURIUM, Strain/Indicator: TA1535, Metabolic Activation: NONE, Method: PREINCUBATION
[5] abbreviates: Test System: AMES SALMONELLA TYPHIMURIUM, Strain/Indicator: TA100, Metabolic Activation: NONE, Method: STANDARD PLATE.
[6] abbreviates: Test System: AMES SALMONELLA TYPHIMURIUM, Strain/Indicator: TA98, Metabolic Activation: RAT, LIVER, S-9, AROCLOR 1254, Method: STANDARD PLATE.

For `CC(C)[N+](C)(CCOC(=O)C1c2ccccc2Oc2ccccc21)C(C)C`, the mutagenic call is “inactive; negative” (End Point: IN VITRO CHROMOSOMAL ABERRATIONS, Test System: CHINESE HAMSTER OVARY CELLS, Metabolic Activation: NONE); “inactive; negative” (End Point: IN VITRO CHROMOSOMAL ABERRATIONS, Test System: CHINESE HAMSTER OVARY CELLS, Metabolic Activation: RAT, LIVER, S-9, AROCLOR 1254); “inactive; negative” (Test System: AMES SALMONELLA TYPHIMURIUM, Strain/Indicator: TA97, Metabolic Activation: HAMSTER, LIVER, S-9, AROCLOR 1254 (10 OR 30%), Method: PREINCUBATION); “inactive; negative” under setting [1]; “inactive; negative” (Test System: AMES SALMONELLA TYPHIMURIUM, Strain/Indicator: TA97, Metabolic Activation: RAT, LIVER, S-9, AROCLOR 1254 (10%), Method: PREINCUBATION); “inactive; negative” (Test System: AMES SALMONELLA TYPHIMURIUM, Strain/Indicator: TA97, Metabolic Activation: RAT, LIVER, S-9, AROCLOR 1254 (30%), Method: PREINCUBATION). The mutagenic call (Test System: AMES SALMONELLA TYPHIMURIUM, Strain/Indicator: TA98, Metabolic Activation: HAMSTER, LIVER, S-9, AROCLOR 1254 (10%), Method: PREINCUBATION) was “inactive; negative”; the mutagenic call (Test System: AMES SALMONELLA TYPHIMURIUM, Strain/Indicator: TA98, Metabolic Activation: HAMSTER, LIVER, S-9, AROCLOR 1254 (30%), Method: PREINCUBATION) was “inactive; negative”; the mutagenic call under setting [2] was “inactive; negative”; the mutagenic call (Test System: AMES SALMONELLA TYPHIMURIUM, Strain/Indicator: TA98, Metabolic Activation: RAT, LIVER, S-9, AROCLOR 1254 (10%), Method: PREINCUBATION) was “inactive; negative”; the mutagenic call (Test System: AMES SALMONELLA TYPHIMURIUM, Strain/Indicator: TA98, Metabolic Activation: RAT, LIVER, S-9, AROCLOR 1254 (30%), Method: PREINCUBATION) was “inactive; negative”; the mutagenic call (Test System: AMES SALMONELLA TYPHIMURIUM, Strain/Indicator: TA100, Metabolic Activation: HAMSTER, LIVER, S-9, AROCLOR 1254 (10%), Method: PREINCUBATION) was “inactive; negative”. The mutagenic call runs as follows: (Test System: AMES SALMONELLA TYPHIMURIUM, Strain/Indicator: TA100, Metabolic Activation: HAMSTER, LIVER, S-9, AROCLOR 1254 (30%), Method: PREINCUBATION) “inactive; negative”; under setting [3], “inactive; negative”; (Test System: AMES SALMONELLA TYPHIMURIUM, Strain/Indicator: TA100, Metabolic Activation: RAT, LIVER, S-9, AROCLOR 1254 (10%), Method: PREINCUBATION) “inactive; negative”; (Test System: AMES SALMONELLA TYPHIMURIUM, Strain/Indicator: TA100, Metabolic Activation: RAT, LIVER, S-9, AROCLOR 1254 (30%), Method: PREINCUBATION) “inactive; negative”; (Test System: AMES SALMONELLA TYPHIMURIUM, Strain/Indicator: TA1535, Metabolic Activation: HAMSTER, LIVER, S-9, AROCLOR 1254 (10%), Method: PREINCUBATION) “inactive; negative”; (Test System: AMES SALMONELLA TYPHIMURIUM, Strain/Indicator: TA1535, Metabolic Activation: HAMSTER, LIVER, S-9, AROCLOR 1254 (30%), Method: PREINCUBATION) “inactive; negative”. For the same compound, the mutagenic call was “inactive; negative” under setting [4]; “inactive; negative” (Test System: AMES SALMONELLA TYPHIMURIUM, Strain/Indicator: TA1535, Metabolic Activation: RAT, LIVER, S-9, AROCLOR 1254 (10%), Method: PREINCUBATION); “inactive; negative” (Test System: AMES SALMONELLA TYPHIMURIUM, Strain/Indicator: TA1535, Metabolic Activation: RAT, LIVER, S-9, AROCLOR 1254 (30%), Method: PREINCUBATION); “inactive; negative” (Test System: AMES SALMONELLA TYPHIMURIUM, Strain/Indicator: TA1537, Metabolic Activation: HAMSTER, LIVER, S-9, AROCLOR 1254 (10%), Method: PREINCUBATION); “inactive; negative” (Test System: AMES SALMONELLA TYPHIMURIUM, Strain/Indicator: TA1537, Metabolic Activation: NONE, Method: PREINCUBATION); “inactive; negative” (Test System: AMES SALMONELLA TYPHIMURIUM, Strain/Indicator: TA1537, Metabolic Activation: RAT, LIVER, S-9, AROCLOR 1254 (10%), Method: PREINCUBATION).
For `O[C@@H]1[C@@H]2O[C@@H]2C=C[C@H]1O`, the mutagenic call is “inactive; negative” under setting [1], “inactive; negative” under setting [2] and “active; positive” under setting [4].
On to `Cc1cccc2c1cc(C)c1c3c(ccc12)C(O)C(O)C1OC31` (stereo unspecified), for which the mutagenic call by setting is: under setting [3], “active; positive”; under setting [5], “active; positive”.
Consider `Cc1ccc(NC(=O)c2ccc(CN3CCN(C)CC3)cc2)cc1Nc1nccc(-c2cccnc2)n1`, for which the mutagenic call runs as follows: (End Point: IN VITRO CHROMOSOMAL ABERRATIONS, Test System: CHINESE HAMSTER EMBRYO (CHE), Metabolic Activation: NONE) “active; positive (structural and numerical changes)”; (End Point: IN VITRO CHROMOSOMAL ABERRATIONS, Test System: INDIAN MUNTJAK FIBROBLASTS (IMF), Metabolic Activation: NONE) “active; positive (numerical changes)”; (End Point: IN VITRO CHROMOSOMAL ABERRATIONS, Test System: NORMAL HUMAN DERMAL FIBROBLASTS (NHDF), Metabolic Activation: NONE) “active; positive (structural changes)”.
For the compound `O=C(c1ccc([N+](=O)[O-])cc1)n1ncc(Cl)c(Cl)c1=O`, the mutagenic call by setting is: (Test System: AMES SALMONELLA TYPHIMURIUM, Strain/Indicator: TA98, Metabolic Activation: NONE, Method: STANDARD PLATE) “inactive; negative”; under setting [6], “inactive; negative”; under setting [5], “active; positive”; (Test System: AMES SALMONELLA TYPHIMURIUM, Strain/Indicator: TA100, Metabolic Activation: RAT, LIVER, S-9, AROCLOR 1254, Method: STANDARD PLATE) “active; positive”; (Test System: AMES SALMONELLA TYPHIMURIUM, Strain/Indicator: TA1535, Metabolic Activation: NONE, Method: STANDARD PLATE) “active; positive”; (Test System: AMES SALMONELLA TYPHIMURIUM, Strain/Indicator: TA1535, Metabolic Activation: RAT, LIVER, S-9, AROCLOR 1254, Method: STANDARD PLATE) “active; positive”. Besides, the mutagenic call was “inactive; negative” (Test System: AMES SALMONELLA TYPHIMURIUM, Strain/Indicator: TA1537, Metabolic Activation: NONE, Method: STANDARD PLATE) and “inactive; negative” (Test System: AMES SALMONELLA TYPHIMURIUM, Strain/Indicator: TA1537, Metabolic Activation: RAT, LIVER, S-9, AROCLOR 1254, Method: STANDARD PLATE).
Consider `Cc1nc2c3c(ccc4ccc(O)cc43)ccc2n1C`, for which the mutagenic call under setting [6] was “active; positive”.
